Like-named read-outs stand apart in the source and are kept apart here.
How the values were obtained:
[1] = system: L. donovani (MHOM/IN/00/DEVI) promastigotes; experiment: In vitro antileishmanial activity, MTT assay on promastigotes; format: cell-based; conditions: Leishmania donovani, 72 h incubation, ≥10 = no activity noted at the highest concentration tested
How it was run: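 Log-phase L. donovani MHOM/IN/00/DEVI promastigotes (10^6/ml, Schneider's + 20% FCS) were exposed to graded compound concentrations (DMSO <0.5% v/v) for 72 h at 27 °C, in duplicate. Growth measured by MTT reduction (4 h, A570 nm); IC50 obtained by regression.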

[2] = system: T. brucei brucei AnTat 1.9; experiment: In vitro antitrypanosomal activity, Alamar Blue assay; format: cell-based; conditions: Trypanosoma brucei; slender bloodstream trypomastigotes, AnTat 1.9 strain; read-out: Trypanosoma brucei brucei IC50 values, Trypanos Antat 1.9
How it was run: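 Viability read-out: resazurin (Alamar Blue) fluorescence, 530 nm excitation/590 nm emission, after 5 h dye exposure following 69 h compound incubation at 37 °C, 5% CO2, 2000 parasites per well, doses in duplicate. IC50 values fitted nonlinearly, three independent runs.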

[3] = system: P. falciparum CQ-sensitive strain 3D7; experiment: In vitro antiplasmodial activity, SYBR Green I fluorescence-based method, strain 3D7; format: cell-based; conditions: Plasmodium falciparum, read-out: P. falciparum strains IC50 values, 3D7
How it was run: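 P. falciparum 3D7 and W2 cultured in human erythrocytes in RPMI with 0.5% Albumax I at 37 °C, exposed 48 h to compounds tested […]. Parasite DNA read by SYBR Green I fluorescence (ex 485/em 535 nm); IC50 by non-linear regression, mean of three independent experiments.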

[4] = system: human telomeric sequence F21T G-quadruplex; experiment: FRET melting experiments, F21T; format: binding; conditions: K+ conditions
Description: (§1) These were performed with dual-labelled oligonucleotides mimicking the Plasmodium telomeric sequences FPf1T [FAM-5′(GGGTTTA)3-GGG3′-TAMRA] and FPf8T [FAM-5′ (GGGTTCA)3GGG3′-TAMRA], the Trypanosoma 9 and 11 chromosomic sequence FTrypBT (also named FEBR1T) [FAM-5′[…]3′-TAMRA], the human telomeric sequence F21T [FAM-(GGGTTA)3-GGG3′-TAMRA], and the human duplex sequence FdxT [FAM5′-[…]-hexaethyleneglycol-[…]3′-TAMRA][51]^,[52]. The oligonucleotides were pre-folded in 10 mM lithium cacodylate buffer (pH 7.2), with 10 mM KCl and 90 mM LiCl (K^+condition). The FAM emissions were recorded at 516 nm using a 492-nm excitation wavelength in the absence and presence of a single compound as a function of temperature (25–95 °C) in 96-well microplates by using a Stratagene MX3000P real-time PCR device at a rate of 1 °C·min^−1. Data were normalised between 0 and 1, and the required temperature for half-denaturation of oligonucleotides corresponding to the emission value of 0.5 was taken as the Tm. […] For each compound, three independent experiments were carried out.

[5] = Cytotoxicity evaluation, MTT; format: cell-based, human; conditions: human
How it was run: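 HepG2 hepatocarcinoma cells exposed to compound in duplicate, then viability measured by MTT reduction (0.5 mg/ml), formazan dissolved in DMSO and read at 570 nm against 630 nm. Viability expressed as percent of untreated cells; CC50 taken from dose-response curve, doxorubicin as positive control.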

[6] = system: Plasmodium telomeric sequence FPf1T G-quadruplex; experiment: FRET melting experiments, FPf1T; format: binding, P. falciparum; conditions: K+ conditions
Description: as §1

[7] = system: Trypanosoma 9 and 11 chromosomic sequence FTrypBT (FEBR1T) G-quadruplex; experiment: FRET melting experiments, FtrypBT; format: binding, T. brucei brucei; conditions: K+ conditions
Description: as §1

[8] = system: Plasmodium telomeric sequence FPf8T G-quadruplex; experiment: FRET melting experiments, FPf8T; format: binding, P. falciparum; conditions: K+ conditions
Description: as §1

[9] = system: human duplex sequence FdxT; experiment: FRET melting experiments, FdxT duplex control; format: binding; conditions: K+ conditions
Description: as §1

[10] = system: P. falciparum CQ-resistant strain W2; experiment: In vitro antiplasmodial activity, SYBR Green I fluorescence-based method, strain W2; format: cell-based; conditions: Plasmodium falciparum, read-out: P. falciparum strains IC50 values, W2
Description: The in vitro antiplasmodial activities were tested over concentrations ranging from […] against culture-adapted P. falciparum reference strains 3D7 and W2. […] The parasites were cultivated in RPMI medium (Sigma-Aldrich, Lyon, France) supplemented with 0.5% Albumax I (Life Technologies Corporation, Paisley, UK), hypoxanthine (Sigma-Aldrich), and gentamicin (Sigma-Aldrich) with human erythrocytes and were incubated at 37 °C in a candle jar, as described previously[43] .The P. falciparum drug susceptibility test was carried out in 96-well flat-bottom sterile plates in a final volume of 250 µl. After 48 h incubation period with the drugs, quantities of DNA in treated and control cultures of parasites in human erythrocytes were quantified using the SYBR Green I (Sigma-Aldrich) fluorescence-based method[44]^,[45]. Briefly, after incubation, plates were frozen at −20 °C until use. Plates were then thawed for 2 h at room temperature, and 100 µl of each homogenised culture was transferred to a well of a 96-well flat-bottom sterile black plate (Nunc, Inc., Rochester, NY) that contained 100 µl of the SYBR Green I lysis buffer (2xSYBR Green, 20 mM Tris base pH 7.5, 5 mM EDTA, 0.008% w/v saponin, 0.08% w/v Triton X-100). […] Plates were incubated for 1 h at room temperature and then read on a fluorescence plate reader (Tecan, Grödig, Austria) using excitation and emission wavelengths of 485 and 535 nm, respectively. IC50 values were calculated by non-linear regression analysis of data from dose-response curves, using TableCurve 2D version 5.0 software (Systat Software, San Jose, CA). IC50 values are reported as means calculated from three independent experiments.

[11] = chloroquine-sensitive strain 3D7, 48 h incubation
[12] = 2 μM compound, 0.2 μM oligonucleotide
[13] = chloroquine-resistant strain W2, 48 h incubation

Structure (SMILES) | IC50 [1] [µM] | IC50 [2] [µM] | IC50 [3, 11] [µM] | ΔTm F21T [4, 12] [°C] | CC50 at 72 h [5] [µM] | ΔTm FPf1T [6, 12] [°C] | ΔTm FtrypBT [7, 12] [°C] | ΔTm FPf8T [8, 12] [°C] | ΔTm FdxT [9, 12] [°C] | IC50 [10, 13] [µM] | IC50 ([3]; 3D7, 48 h) [µM] | ΔTm F21T ([4]; tested at 1 μM) [°C] | ΔTm FPf1T ([6]; tested at 1 μM) [°C] | IC50 ([10]; W2, 48 h) [µM] | ΔTm FPf8T ([8]; tested at 1 μM) [°C] | ΔTm F21T ([4]; tested at 0.5 μM) [°C] | ΔTm FPf1T ([6]; tested at 0.5 μM) [°C] | ΔTm FtrypBT ([7]; tested at 0.5 μM) [°C] | ΔTm FPf8T ([8]; tested at 0.5 μM) [°C] | ΔTm FdxT ([9]; tested at 0.5 μM) [°C]
c1cc(CNCCN2CCOCC2)cc(-c2cc(-c3cccc(CNCCN4CCOCC4)c3)c3ccccc3n2)c1 [Compound 1t, 2,4-Bis{3-[(2-morpholinoethyl)aminomethyl]phenyl}quinoline] | ≥ 10 | 0.46 ± 0.12 | 0.23 ± 0.021 | 0.3 ± 0.3 | 3.93 ± 1.1 | 0.9 ± 0.2 | 0.6 ± 0.4 | 0.6 ± 0.7 | −1.6 ± 0.4 | – | – | – | – | – | – | – | – | – | – | –
c1ccc2c(-c3ccc(CNCCCN4CCOCC4)cc3)nc(-c3ccc(CNCCCN4CCOCC4)cc3)nc2c1 [Compound 3f, 2,4-Bis{4-[(3-morpholinopropyl)aminomethyl]phenyl}quinazoline] | ≥ 10 | 0.81 ± 0.063 | 0.42 ± 0.083 | 3.1 ± 0.5 | 4.52 ± 0.4 | 3.3 ± 0.3 | 2.8 ± 0.1 | 2.9 ± 0.3 | −0.2 ± 0.2 | – | – | – | – | – | – | – | – | – | – | –
COc1ccc2nc(-c3ccc(CNCCCCN(C)C)cc3)nc(-c3ccc(CNCCCCN(C)C)cc3)c2c1 [Compound 3h, 6-Methoxy-2,4-bis{4-[(4-dimethylaminobutyl)aminomethyl]phenyl}quinazoline] | ≥ 10 | 0.27 ± 0.035 | 3.84 ± 0.38 | 16.4 ± 1.3 | 11.7 ± 1.2 | 19.8 ± 0.6 | 15.7 ± 0.3 | 18.8 ± 0.7 | 2.0 ± 0.2 | 3.68 ± 0.5 | – | – | – | – | – | – | – | – | – | –
CN(C)CCCNCc1ccc(-c2cc(-c3ccc(CNCCCN(C)C)cc3)c3ccccc3n2)cc1 [Compound 1b, 2,4-Bis{4-[(3-dimethylaminopropyl)aminomethyl]phenyl}quinoline] | ≥ 10 | 0.82 ± 0.022 | 0.47 ± 0.06 | 12.7 ± 0.6 | 4.09 ± 0.2 | 8.4 ± 1.0 | 7.8 ± 1.2 | 9.9 ± 0.1 | 0.0 ± 0.7 | 0.88 ± 0.14 | – | – | – | – | – | – | – | – | – | –
CN1CCN(CCCNCc2ccc(-c3cc(-c4ccc(CNCCCN5CCN(C)CC5)cc4)c4ccccc4n3)cc2)CC1 [Compound 1e, 2,4-Bis{4-[(3–(4-methylpiperazin-1-yl)propyl)aminomethyl]phenyl}quinoline] | ≥ 10 | 1.78 ± 0.089 | 0.47 ± 0.06 | 11.3 ± 1.1 | 11.3 ± 0.5 | 9.4 ± 0.6 | 7.4 ± 0.1 | 9.2 ± 0.5 | 0.1 ± 0.1 | 1.29 ± 0.063 | – | – | – | – | – | – | – | – | – | –
c1cc(CNCCN2CCOCC2)cc(-c2nc(-c3cccc(CNCCN4CCOCC4)c3)c3ccccc3n2)c1 [Compound 3v, 2,4-Bis{3-[(2-morpholinoethyl)aminomethyl]phenyl}quinazoline] | ≥ 10 | 1.37 ± 0.658 | 0.36 ± 0.126 | 0.1 ± 0.1 | 6.46 ± 1 | 0.5 ± 0.3 | 0.6 ± 0.1 | 0.5 ± 0.4 | 0.0 ± 0.0 | – | – | – | – | – | – | – | – | – | – | –
c1cc(CNCCCN2CCOCC2)cc(-c2cc(-c3cccc(CNCCCN4CCOCC4)c3)c3ccccc3n2)c1 [Compound 1s, 2,4-Bis{3-[(3-morpholinopropyl)aminomethyl]phenyl}quinoline] | ≥ 10 | 0.73 ± 0.264 | 0.21 ± 0.04 | 2.5 ± 0.1 | 2.63 ± 0.5 | 3.0 ± 0.4 | 1.8 ± 0.7 | 2.8 ± 0.5 | −1.5 ± 0.4 | – | – | – | – | – | – | – | – | – | – | –
c1ccc2c(-c3ccc(CNCCN4CCOCC4)cc3)nc(-c3ccc(CNCCN4CCOCC4)cc3)nc2c1 [Compound 3g, 2,4-Bis{4-[(2-morpholinoethyl)aminomethyl]phenyl}quinazoline] | ≥ 10 | 1.27 ± 0.632 | 0.15 ± 0.027 | 4.2 ± 2.1 | 4.08 ± 0.6 | 1.4 ± 0.1 | 1.0 ± 0.5 | 1.2 ± 0.4 | 0.3 ± 0.2 | – | – | – | – | – | – | – | – | – | – | –
CCN(CC)CCCC(C)Nc1ccnc2cc(Cl)ccc12 (stereo not drawn) [Chloroquine, reference compound] | – | – | – | – | – | – | – | – | – | – | 0.11 ± 0.01 | 2.4 ± 1.1 | 1.9 ± 0.1 | 0.4 ± 0.04 | 2.4 ± 1.2 | – | – | – | – | –
C[n+]1cc(NC(=O)c2ccc3ccc4ccc(C(=O)Nc5cc6ccccc6[n+](C)c5)nc4c3n2)cc2ccccc21 [PhenDC3, reference compound] | – | – | – | – | – | – | – | – | – | – | – | – | – | – | – | 26.3 ± 0.1 | 24.6 ± 0.1 | 19.2 ± 0.2 | 24.7 ± 0.2 | 0.1 ± 0.2
CN(C)CCCNCc1ccc(-c2nc(-c3ccc(CNCCCN(C)C)cc3)c3ccccc3n2)cc1 [Compound 3b, 2,4-Bis{4-[(3-dimethylaminopropyl)aminomethyl]phenyl}quinazoline] | ≥ 10 | 1.18 ± 0.057 | 0.62 ± 0.077 | 13.2 ± 0.3 | 4.01 ± 0.8 | 11.6 ± 1.1 | 10.0 ± 0.4 | 11.2 ± 0.8 | 0.1 ± 0.1 | – | – | – | – | – | – | – | – | – | – | –
OC(c1cc(C(F)(F)F)nc2c(C(F)(F)F)cccc12)C1CCCCN1 (stereo not drawn) [Mefloquine, reference compound] | – | – | 0.06 ± 0.003 | – | – | – | – | – | – | 0.016 ± 0.002 | – | 2.6 ± 0.5 | 3.1 ± 0.5 | – | 6.6 ± 2.3 | – | – | – | – | –
c1ccc2c(-c3ccc(CNCCCN4CCOCC4)cc3)cc(-c3ccc(CNCCCN4CCOCC4)cc3)nc2c1 [Compound 1g, 2,4-Bis{4-[(3-morpholinopropyl)aminomethyl]phenyl}quinoline] | ≥ 10 | 0.38 ± 0.045 | 0.099 ± 0.007 | 7.1 ± 2.7 | 1.47 ± 0.3 | 3.7 ± 0.3 | 2.0 ± 0.2 | 3.7 ± 0.6 | −1.8 ± 0.4 | – | – | – | – | – | – | – | – | – | – | –
